Where two headings read alike, the source gives them in different places.
Assays:
[1] = system: SARS-CoV-2; type: cell-based
[2] = system: Vero E6 cells; settings: 48 hours, CellTiterGlo
[3] = system: SARS-CoV-2; type: cell-based; settings: compound 10 and 31.6 μM, MOI 0.01, 72 hours
[4] = system: Vero E6 cells
[5] = 1 hour pre-treatment, 1 nM-100 μM, MOI 0.05, 48 hours, Vero E6 cells

Compound | effect on Viral Load (viral burden) [1, 5] | effect on Host Cell Number (cell viability) [4] | further results
O=c1cc(-c2ccc(O)c(-c3c(O)cc(O)c4c(=O)cc(-c5ccc(O)cc5)oc34)c2)oc2cc(O)cc(O)c12 [Amentoflavone] | reduction in Viral Load levels | – | –
COc1ccc(-c2cc(=O)c3c(O)cc(O)cc3o2)cc1-c1c(O)cc(O)c2c(=O)cc(-c3ccc(O)cc3)oc12 [Bilobetin] | reduction in Viral Load levels | – | –
C[C@@H]1CC[C@@]2(OC1)O[C@H]1C[C@H]3[C@@H]4CC=C5C[C@@H](O[C@@H]6O[C@H](CO)[C@@H](O[C@@H]7O[C@@H](C)[C@H](O)[C@@H](O)[C@H]7O)[C@H](O)[C@H]6O[C@@H]6O[C@@H](C)[C@H](O)[C@@H](O)[C@H]6O)CC[C@]5(C)[C@H]4CC[C@]3(C)[C@H]1[C@@H]2C [Dioscin] | reduction in Viral Load levels | – | concentrations that did not significantly impact Vero E6 cell viability compared to the DMSO treated control [2]: less than or equal to 0.1 μM; toxicity observed at (and above) concentration [2]: ≥ 1 µM
O=c1oc2c(O)c(O)cc3c(=O)oc4c(O)c(O)cc1c4c23 [Ellagic Acid] | – | – | Remdesivir concentration at which the compound synergized [3]: ≤ 0.625 µM; combined effect with Remdesivir on host cell viability [3]: synergized
CN1C[C@@H](C(=O)N[C@]2(C)O[C@@]3(O)[C@@H]4CCCN4C(=O)[C@H](Cc4ccccc4)N3C2=O)C=C2c3cccc4[nH]cc(c34)C[C@H]21 [Ergotamine] | reduction in Viral Load levels | – | –
COc1cc(O)c2c(=O)cc(-c3ccc(OC)c(-c4c(O)cc(O)c5c(=O)cc(-c6ccc(O)cc6)oc45)c3)oc2c1 [Ginkgetin] | reduction in Viral Load levels | – | –
Oc1cc(O)c2c(c1)O[C@H](c1ccc(O)c(O)c1)[C@H](O)[C@H]2c1c(O)cc(O)c2c1O[C@H](c1ccc(O)c(O)c1)[C@H](O)C2 [Procyanidin B2] | did not show an effect | did not show an effect | –
CC1OC(OCC2OC(Oc3c(-c4ccc(O)cc4)oc4cc(OC5OC(C)C(O)C(O)C5O)cc(O)c4c3=O)C(O)C(O)C2O)C(O)C(O)C1O (stereo not shown) [Robinin] | did not show an effect | did not show an effect | –
C[C@@H]1O[C@@H](OC[C@H]2O[C@@H](Oc3c(-c4ccc(O)c(O)c4)oc4cc(O)cc(O)c4c3=O)[C@H](O)[C@@H](O)[C@@H]2O)[C@H](O)[C@H](O)[C@H]1O [Rutin] | – | did not show an effect | –
O=C(O[C@H]1Cc2c(O)cc(O)cc2O[C@H]1c1cc(O)c(O)c2c(=O)c(O)cc([C@H]3Oc4cc(O)cc(O)c4C[C@H]3O)cc12)c1cc(O)c(O)c(O)c1 [Theaflavin-3-gallate, Theaflavin 3-gallate] | reduction in Viral Load levels | – | –
O=c1c(O)cc([C@H]2Oc3cc(O)cc(O)c3C[C@H]2O)cc2c([C@H]3Oc4cc(O)cc(O)c4C[C@H]3O)cc(O)c(O)c12 [Theaflavin] | did not show an effect | did not show an effect | –
O=C(/C=C/c1ccc(O)cc1)OC[C@H]1O[C@@H](Oc2c(-c3ccc(O)cc3)oc3cc(O)cc(O)c3c2=O)[C@H](O)[C@@H](O)[C@@H]1O [Tiliroside] | – | did not show an effect | concentrations that only mildly impacted Vero E6 cell viability compared to the DMSO treated control [2]: less than or equal to 10 μM; toxicity observed at (and above) concentration [2]: ≥ 100 µM
O=c1oc2cc(O)ccc2c2ccc(O)cc12 [Urolithin A] | – | – | Remdesivir concentration at which the compound synergized [3]: ≤ 1.25 µM; combined effect with Remdesivir on host cell viability [3]: synergized
Hypericin | reduction in Viral Load levels | – | –
Miquelianin/Quercetin 3-glucuronide | – | – | effect on Viral Load (viral burden) [1]: did not show an effect
Punicalagin | reduction in Viral Load levels | – | –
